# Test results from patent US20150307938A1, “METHOD TO IDENTIFY A NOVEL CLASS OF IMMUNOLOGIC ADJUVANTS” (Lancell, L.L.C., priority 2011, published 2015).
# System: skin
# Experiment: Affymetrix microarray of skin, DBP-4 hr and analogs vs. untreated; gene selection by log-2 fold change, Wilcoxon, Kendall tau (Tables 8, 9)
# Assay type: in vivo, mouse
# Settings: for Wilcoxon: DBP-4 hr vs. untreated; for Kendall: Kendall tau, expression vs. outcome
# [1] = gene #535 Tmem93 NM_001168470_at
# [2] = gene #536 Nfkb2 NM_001177369_at
# [3] = gene #537 Nfkb2 NM_001177370_at
# [4] = gene #538 Zfp518b NM_001177902_at
# [5] = gene #541 Meis1 NM_001193271_at
# [6] = gene #542 Bcar1 NM_001198839_at
# [7] = gene #543 Dcaf11 NM_001199009_at
# [8] = gene #544 Rabgef1 NM_001199059_at
# [9] = gene #545 4931408A02Rik NM_001199210_at
smiles,measurement,setting,value
"CCCCOC(=O)c1ccccc1C(=O)OCCCC [DBP, dibutylphthalate]",Log2 Expression Level,gene #56 of Table 8,10.17
same,Log2 Expression Level,gene #57 of Table 8,8.92
same,Log2 Expression Level,gene #58 of Table 8,9.48
same,Log2 Expression Level,gene #59 of Table 8,8.72
same,Log2 Expression Level,gene #60 of Table 8,7.73
same,Log2 Expression Level,gene #61 of Table 8,12.15
same,Log2 Expression Level,gene #62 of Table 8,8.52
same,Log2 Expression Level,gene #63 of Table 8,11.36
same,Log2 Expression Level,gene #64 of Table 8,11.47
same,Log2 Expression Level,gene #65 of Table 8,7.88
same,Log2 Expression Level,gene #66 of Table 8,8.85
same,Log2 Expression Level,gene #67 of Table 8,5.48
same,Log2 Expression Level,gene #68 of Table 8,10.24
same,Log2 Expression Level,gene #69 of Table 8,6.54
same,Log2 Expression Level,gene #70 of Table 8,5.48
same,Log2 Expression Level,gene #71 of Table 8,8.51
same,Log2 Expression Level,gene #72 of Table 8,9.12
same,Log2 Expression Level,gene #73 of Table 8,7.67
same,Log2 Expression Level,gene #74 of Table 8,7.70
same,Log2 Expression Level,gene #75 of Table 8,9.61
same,Log2 Expression Level,gene #76 of Table 8,5.46
same,Log2 Expression Level,gene #77 of Table 8,9.71
same,Log2 Expression Level,gene #78 of Table 8,10.76
same,Log2 Expression Level,gene #79 of Table 8,8.09
same,Log2 Expression Level,gene #80 of Table 8,13.23
same,Log2 Expression Level,gene #81 of Table 8,6.69
same,Log2 Expression Level,gene #82 of Table 8,6.28
same,Log2 Expression Level,gene #83 of Table 8,7.59
same,Log2 Expression Level,gene #84 of Table 8,8.32
same,Log2 Expression Level,gene #85 of Table 8,7.84
same,Log2 Expression Level,gene #86 of Table 8,7.16
same,Log2 Expression Level,gene #87 of Table 8,9.56
same,Log2 Expression Level,gene #88 of Table 8,8.67
same,Log2 Expression Level,gene #89 of Table 8,6.04
same,Log2 Expression Level,gene #90 of Table 8,10.84
same,Log2 Expression Level,gene #91 of Table 8,8.25
same,Log2 Expression Level,gene #92 of Table 8,7.56
same,Log2 Expression Level,gene #93 of Table 8,9.98
same,Log2 Expression Level,gene #94 of Table 8,8.85
same,Log2 Expression Level,gene #95 of Table 8,7.22
same,Log2 Expression Level,gene #96 of Table 8,8.79
same,Log2 Expression Level,gene #97 of Table 8,6.04
same,Log2 Expression Level,gene #98 of Table 8,5.99
same,Log2 Expression Level,gene #99 of Table 8,10.05
same,Log2 Expression Level,gene #100 of Table 8,8.07
same,Wilcoxon,[1],No
same,Kendall,[1],Yes
same,Wilcoxon,[2],No
same,Kendall,[2],Yes
same,Wilcoxon,[3],No
same,Kendall,[3],Yes
same,Wilcoxon,[4],No
same,Kendall,[4],Yes
same,Wilcoxon,gene #539 Ccm2 NM_001190343_at,No
same,Kendall,gene #539 Ccm2 NM_001190343_at,Yes
same,Wilcoxon,gene #540 Ccm2 NM_001190344_at,No
same,Kendall,gene #540 Ccm2 NM_001190344_at,Yes
same,Wilcoxon,[5],No
same,Kendall,[5],Yes
same,Wilcoxon,[6],No
same,Kendall,[6],Yes
same,Wilcoxon,[7],No
same,Kendall,[7],Yes
same,Wilcoxon,[8],No
same,Kendall,[8],Yes
same,Wilcoxon,[9],No
same,Kendall,[9],Yes
same,Wilcoxon,gene #546 Cav1 NM_007616_at,No
same,Kendall,gene #546 Cav1 NM_007616_at,Yes
same,Wilcoxon,gene #547 Cdkn2c NM_007671_at,No
same,Kendall,gene #547 Cdkn2c NM_007671_at,Yes
same,Wilcoxon,gene #548 Chd1 NM_007690_at,No
same,Kendall,gene #548 Chd1 NM_007690_at,Yes
same,Wilcoxon,gene #549 Cox8a NM_007750_at,No
same,Kendall,gene #549 Cox8a NM_007750_at,Yes
same,Wilcoxon,gene #550 Epc1 NM_007935_at,No
same,Kendall,gene #550 Epc1 NM_007935_at,Yes
same,Wilcoxon,gene #551 Mpzl2 NM_007962_at,No
same,Kendall,gene #551 Mpzl2 NM_007962_at,Yes
same,Wilcoxon,gene #552 Fnta NM_008033_at,No
same,Kendall,gene #552 Fnta NM_008033_at,Yes
same,Wilcoxon,gene #553 Gcdh NM_008097_at,No
same,Kendall,gene #553 Gcdh NM_008097_at,Yes
same,Wilcoxon,gene #554 Gcnt2 NM_008105_at,No
same,Kendall,gene #554 Gcnt2 NM_008105_at,Yes
same,Wilcoxon,gene #555 Nr3c1 NM_008173_at,No
same,Kendall,gene #555 Nr3c1 NM_008173_at,Yes
same,Wilcoxon,gene #556 Hhex NM_008245_at,No
same,Kendall,gene #556 Hhex NM_008245_at,Yes
